{"source": "PubChem BioAssay AID330", "about": "(DTP/NCI, 2004)", "tested_on": "P388 leukemia ip, CD2F1 mice, survival T/C", "assay": "NCI In Vivo Anticancer Drug Screen. Data for tumor model P388 Leukemia (intraperitoneal) in CD2F1 (CDF1) mice", "conditions": "endpoint: median survival time, higher = longer survival", "method_in_brief": "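Mice carrying the transplanted tumor received test compound or vehicle. Survival was recorded in each group, and the value is the treated-group measurement divided by that of the vehicle-treated control group.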", "key": {"[1]": {"conditions": "dose: 50.0 mg/kg/injection, schedule: Q01DX009 (ip), vehicle: saline with Tween-80"}, "[2]": {"conditions": "dose: 100.0 mg/kg/injection, schedule: Q01DX009 (ip), vehicle: saline with Tween-80"}, "[3]": {"conditions": "dose: 50.0 mg/kg/injection, schedule: Q01DX005 (ip), vehicle: Klucel (hydroxypropylcellulose) (HPC)"}, "[4]": {"conditions": "dose: 100.0 mg/kg/injection, schedule: Q01DX005 (ip), vehicle: Klucel (hydroxypropylcellulose) (HPC)"}, "[5]": {"conditions": "dose: 200.0 mg/kg/injection, schedule: Q01DX005 (ip), vehicle: Klucel (hydroxypropylcellulose) (HPC)"}, "[6]": {"conditions": "dose: 25.0 mg/kg/injection, schedule: Q01DX009 (ip), vehicle: saline with Tween-80"}, "[7]": {"conditions": "dose: 50.0 mg/kg/injection, schedule: Q01DX005 (ip), vehicle: saline"}}, "note": "Several values for one entry are separate records, joined by “and”; a condition that tells them apart may be missing. Equal entries are not always repeated. Inconclusive results and toxic doses are left out."}
{"smiles": "COC1CC(C)C(OC)C2=CC(=O)C=C(NC(=O)/C(C)=C/C=C\\C(C)C(OC(N)=O)/C(C)=C\\C(C)C1OC)C2=O", "note": "(stereo not drawn)", "values": [{"measurement": "T/C", "setting": "dose: 5.0 mg/kg/injection, schedule: Q01DX009 (ip), vehicle: saline + alcohol", "result": "121 % of control"}, {"measurement": "T/C", "setting": "dose: 10.0 mg/kg/injection, schedule: Q01DX009 (ip), vehicle: saline + alcohol", "result": "123 % of control"}, {"measurement": "T/C", "setting": "dose: 20.0 mg/kg/injection, schedule: Q01DX009 (ip), vehicle: saline + alcohol", "result": "86 % of control"}]}
{"smiles": "COc1ccc(C(=O)CC(C#N)c2ccc(OC)c(OC)c2)cc1OC", "note": "(stereo not drawn)", "values": [{"measurement": "T/C", "setting": "dose: 100.0 mg/kg/injection, schedule: Q04DX003 (ip), vehicle: saline with Tween-80", "result": "90 % of control"}, {"measurement": "T/C", "setting": "dose: 200.0 mg/kg/injection, schedule: Q04DX003 (ip), vehicle: saline with Tween-80", "result": "86 % of control"}, {"measurement": "T/C", "setting": "dose: 400.0 mg/kg/injection, schedule: Q04DX003 (ip), vehicle: saline with Tween-80", "result": "86 % of control"}]}
{"smiles": "COc1cc2c[n+](C)c3c4cc(OC)c(OC)cc4c(OCc4ccccc4)cc3c2cc1OC", "values": [{"measurement": "T/C", "setting": "dose: 6.25 mg/kg/injection, schedule: Q01DX005 (ip), vehicle: saline with Tween-80", "result": "123 % of control and 124 % of control"}, {"measurement": "T/C", "setting": "dose: 12.5 mg/kg/injection, schedule: Q01DX005 (ip), vehicle: saline with Tween-80", "result": "124 % of control"}]}
{"smiles": "Nc1cc2nc3ccccc3sc-2cc1=O", "values": [{"measurement": "T/C", "setting": "[1]", "result": "112 % of control"}, {"measurement": "T/C", "setting": "[2]", "result": "111 % of control"}, {"measurement": "T/C", "setting": "dose: 200.0 mg/kg/injection, schedule: Q01DX009 (ip), vehicle: saline with Tween-80", "result": "113 % of control"}, {"measurement": "T/C", "setting": "dose: 400.0 mg/kg/injection, schedule: Q01DX009 (ip), vehicle: saline with Tween-80", "result": "89 % of control"}]}
{"smiles": "O=C(Cc1n[nH]c(=S)nc1CC(=O)c1ccccc1)c1ccccc1", "values": [{"measurement": "T/C", "setting": "dose: 60.0 mg/kg/injection, schedule: Q01DX005 (ip), vehicle: saline with Tween-80", "result": "98 % of control"}, {"measurement": "T/C", "setting": "dose: 120.0 mg/kg/injection, schedule: Q01DX005 (ip), vehicle: saline with Tween-80", "result": "97 % of control"}, {"measurement": "T/C", "setting": "dose: 240.0 mg/kg/injection, schedule: Q01DX005 (ip), vehicle: saline with Tween-80", "result": "105 % of control"}]}
{"smiles": "O=C(Nc1ccc(Cl)c(Cl)c1)n1cnc2ccccc21", "values": [{"measurement": "T/C", "setting": "dose: 6.25 mg/kg/injection, schedule: Q01DX009 (ip), vehicle: saline", "result": "105 % of control and 109 % of control"}, {"measurement": "T/C", "setting": "[1]", "result": "98 % of control"}]}
{"smiles": "O=C(NC1CCCCC1C1CCC(Cl)CC1)c1ccccc1", "note": "(stereo not drawn)", "values": [{"measurement": "T/C", "setting": "dose: 50.0 mg/kg/injection, schedule: Q01DX005 (ip), vehicle: saline with Tween-80", "result": "89 % of control"}, {"measurement": "T/C", "setting": "dose: 100.0 mg/kg/injection, schedule: Q01DX005 (ip), vehicle: saline with Tween-80", "result": "87 % of control"}, {"measurement": "T/C", "setting": "dose: 200.0 mg/kg/injection, schedule: Q01DX005 (ip), vehicle: saline with Tween-80", "result": "87 % of control"}]}
{"smiles": "CSC(=S)/C=C(\\O)c1ccccc1", "values": [{"measurement": "T/C", "setting": "dose: 100.0 mg/kg/injection, schedule: Q04DX003 (ip), vehicle: saline", "result": "95 % of control"}, {"measurement": "T/C", "setting": "dose: 200.0 mg/kg/injection, schedule: Q04DX003 (ip), vehicle: saline", "result": "104 % of control"}]}
{"smiles": "CCOCC[Si]12OCCN(CCO1)CCO2", "values": [{"measurement": "T/C", "setting": "[3]", "result": "97 % of control"}, {"measurement": "T/C", "setting": "[4]", "result": "101 % of control"}, {"measurement": "T/C", "setting": "[5]", "result": "90 % of control"}]}
{"smiles": "Clc1ccc(CN2COc3c(cc(Cl)c4cccnc34)C2)cc1Cl", "values": [{"measurement": "T/C", "setting": "dose: 100.0 mg/kg/injection, schedule: Q04DX003 (ip), vehicle: Klucel (hydroxypropylcellulose) (HPC)", "result": "97 % of control"}, {"measurement": "T/C", "setting": "dose: 200.0 mg/kg/injection, schedule: Q04DX003 (ip), vehicle: Klucel (hydroxypropylcellulose) (HPC)", "result": "97 % of control"}, {"measurement": "T/C", "setting": "dose: 400.0 mg/kg/injection, schedule: Q04DX003 (ip), vehicle: Klucel (hydroxypropylcellulose) (HPC)", "result": "89 % of control"}]}
{"smiles": "COc1ccc2[nH]c3c(c2c1)CCNC3CC(C)CCC=C(C)C", "note": "(stereo not drawn)", "values": [{"measurement": "T/C", "setting": "dose: 12.5 mg/kg/injection, schedule: Q01DX009 (ip), vehicle: saline with Tween-80", "result": "99 % of control"}, {"measurement": "T/C", "setting": "[6]", "result": "98 % of control"}]}
{"smiles": "C/C(=N\\O)C(C)(O)C(C)(C)C", "note": "(stereo not drawn)", "values": [{"measurement": "T/C", "setting": "[6]", "result": "103 % of control"}, {"measurement": "T/C", "setting": "[1]", "result": "86 % of control"}, {"measurement": "T/C", "setting": "[2]", "result": "93 % of control"}]}
{"smiles": "C=C=CON1CCCCC1", "values": [{"measurement": "T/C", "setting": "dose: 12.5 mg/kg/injection, schedule: Q01DX005 (ip), vehicle: saline", "result": "99 % of control"}, {"measurement": "T/C", "setting": "dose: 25.0 mg/kg/injection, schedule: Q01DX005 (ip), vehicle: saline", "result": "104 % of control"}, {"measurement": "T/C", "setting": "[7]", "result": "100 % of control and 104 % of control"}]}
{"smiles": "CN(C)CCCNC(=O)c1ccc2c(c1)C(=O)c1ccccc1C2=O", "values": [{"measurement": "T/C", "setting": "dose: 100.0 mg/kg/injection, schedule: Q04DX003 (ip), vehicle: water", "result": "107 % of control"}, {"measurement": "T/C", "setting": "dose: 200.0 mg/kg/injection, schedule: Q04DX003 (ip), vehicle: water", "result": "115 % of control"}]}
{"smiles": "CC1=NC(C)(COC(=O)C2(C)NC(C)(CO)CO2)COC1=O", "note": "(stereo not drawn)", "values": [{"measurement": "T/C", "setting": "dose: 60.0 mg/kg/injection, schedule: Q01DX005 (ip), vehicle: saline", "result": "105 % of control"}, {"measurement": "T/C", "setting": "dose: 120.0 mg/kg/injection, schedule: Q01DX005 (ip), vehicle: saline", "result": "97 % of control"}, {"measurement": "T/C", "setting": "dose: 240.0 mg/kg/injection, schedule: Q01DX005 (ip), vehicle: saline", "result": "97 % of control"}]}
{"smiles": "CCN(Cc1cccc(S(=O)(=O)O)c1)c1ccc(C(=C2C=CC(=[N+](CC)Cc3cccc(S(=O)(=O)O)c3)C=C2)c2ccc(S(=O)(=O)O)cc2)cc1", "values": [{"measurement": "T/C", "setting": "[7]", "result": "100 % of control"}, {"measurement": "T/C", "setting": "dose: 100.0 mg/kg/injection, schedule: Q01DX005 (ip), vehicle: saline", "result": "99 % of control"}, {"measurement": "T/C", "setting": "dose: 200.0 mg/kg/injection, schedule: Q01DX005 (ip), vehicle: saline", "result": "94 % of control"}]}
{"smiles": "CCOC(=O)C1=CNc2c(C#N)cnn2C12C(=O)Oc1ccc(OC)cc12", "note": "(stereo not drawn)", "values": [{"measurement": "T/C", "setting": "dose: 25.0 mg/kg/injection, schedule: Q01DX005 (ip), vehicle: Klucel (hydroxypropylcellulose) (HPC)", "result": "109 % of control"}, {"measurement": "T/C", "setting": "[3]", "result": "105 % of control"}, {"measurement": "T/C", "setting": "[4]", "result": "105 % of control"}, {"measurement": "T/C", "setting": "[5]", "result": "105 % of control"}]}
